According to patent publication US10092570B2 (Incyte Corporation, priority 2011, dated 2018):
Counter-ions that a name gives are not always drawn.

Experiments:
[1] = system: Pfeiffer cell line (diffuse large B cell lymphoma); assay: Example B2: Pfeiffer cell proliferation assay; assay type: cell-based; settings: Pfeiffer cells, [3H]-thymidine incorporation
Protocol: Pfeiffer cell line (diffuse large B cell lymphoma) are purchased from ATCC (Manassas, Va.) and maintained in the culture medium recommended (RPMI and 10% FBS). To measure the anti-proliferation activity of the compounds, the Pfeiffer cells are plated with the culture medium (2×10^3 cells/well/per 200 μl) into 96-well ultra-low binding plates (Corning, Corning, N.Y.), in the presence or absence of a concentration range of test compounds. After 3-4 days, [^3H]-thymidine (1 μCi/well) (PerkinElmer, Boston, Mass.) in PBS is then added to the cell culture for an additional 12 hours before the incorporated radioactivity is separated by filtration with water through GF/B filters (Packard Bioscience, Meridenj, Conn.) and measured by liquid scintillation counting with a TopCount (Packard Bioscience).

PI3Kδ (p110δ/p85α) = PI3Kδ (p110δ/p85α) (Homo sapiens (Human), UniProt O00329); assay: Example A3: PI3Kδ scintillation proximity assay; assay type: biochemical; settings: scintillation proximity assay, 20 μM ATP, 4 nM PI3Kδ; read-out: PI3Kδ SPA IC50
Procedure, shortened: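 p110δ/p85α (4 nM) phosphorylated 20 μM PIP2 with 20 μM ATP plus [γ-33P]ATP in MOPS pH 6.7, MgCl2, DTT, CHAPS, 0.5% DMSO, at RT. Stopped with EDTA/excess ATP, product captured on WGA SPA beads overnight and counted; IC50 from percent control activity versus log inhibitor.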

PI3Kδ (p110δ/p85α), sequence (O00329 whole entry): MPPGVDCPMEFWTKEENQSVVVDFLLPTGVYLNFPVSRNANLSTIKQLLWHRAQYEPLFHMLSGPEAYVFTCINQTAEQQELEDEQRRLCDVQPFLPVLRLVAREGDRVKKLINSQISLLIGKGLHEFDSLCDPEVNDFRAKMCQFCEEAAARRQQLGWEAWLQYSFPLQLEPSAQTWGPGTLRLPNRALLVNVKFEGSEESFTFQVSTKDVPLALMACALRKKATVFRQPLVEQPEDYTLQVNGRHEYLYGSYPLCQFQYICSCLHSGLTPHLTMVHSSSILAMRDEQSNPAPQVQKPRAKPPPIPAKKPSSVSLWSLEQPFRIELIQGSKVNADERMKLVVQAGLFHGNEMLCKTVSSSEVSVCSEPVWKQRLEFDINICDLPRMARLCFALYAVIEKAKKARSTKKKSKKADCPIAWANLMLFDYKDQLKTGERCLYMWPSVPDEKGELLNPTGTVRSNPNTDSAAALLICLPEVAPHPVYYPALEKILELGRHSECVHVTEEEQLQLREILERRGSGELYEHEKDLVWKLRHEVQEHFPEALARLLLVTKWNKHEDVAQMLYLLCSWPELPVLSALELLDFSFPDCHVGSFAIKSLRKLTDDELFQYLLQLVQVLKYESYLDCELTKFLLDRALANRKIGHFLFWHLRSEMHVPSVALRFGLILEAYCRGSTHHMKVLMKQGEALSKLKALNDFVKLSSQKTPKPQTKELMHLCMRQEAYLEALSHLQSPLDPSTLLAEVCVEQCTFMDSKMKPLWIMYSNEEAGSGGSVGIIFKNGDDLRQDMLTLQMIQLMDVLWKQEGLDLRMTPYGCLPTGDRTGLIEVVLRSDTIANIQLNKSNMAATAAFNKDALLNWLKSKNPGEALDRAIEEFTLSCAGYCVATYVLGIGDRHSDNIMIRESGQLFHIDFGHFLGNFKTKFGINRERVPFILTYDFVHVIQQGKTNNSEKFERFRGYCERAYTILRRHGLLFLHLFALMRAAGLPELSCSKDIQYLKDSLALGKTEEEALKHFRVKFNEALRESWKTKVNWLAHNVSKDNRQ
PI3Kδ (p110δ/p85α), sequence (P27986 whole entry partner): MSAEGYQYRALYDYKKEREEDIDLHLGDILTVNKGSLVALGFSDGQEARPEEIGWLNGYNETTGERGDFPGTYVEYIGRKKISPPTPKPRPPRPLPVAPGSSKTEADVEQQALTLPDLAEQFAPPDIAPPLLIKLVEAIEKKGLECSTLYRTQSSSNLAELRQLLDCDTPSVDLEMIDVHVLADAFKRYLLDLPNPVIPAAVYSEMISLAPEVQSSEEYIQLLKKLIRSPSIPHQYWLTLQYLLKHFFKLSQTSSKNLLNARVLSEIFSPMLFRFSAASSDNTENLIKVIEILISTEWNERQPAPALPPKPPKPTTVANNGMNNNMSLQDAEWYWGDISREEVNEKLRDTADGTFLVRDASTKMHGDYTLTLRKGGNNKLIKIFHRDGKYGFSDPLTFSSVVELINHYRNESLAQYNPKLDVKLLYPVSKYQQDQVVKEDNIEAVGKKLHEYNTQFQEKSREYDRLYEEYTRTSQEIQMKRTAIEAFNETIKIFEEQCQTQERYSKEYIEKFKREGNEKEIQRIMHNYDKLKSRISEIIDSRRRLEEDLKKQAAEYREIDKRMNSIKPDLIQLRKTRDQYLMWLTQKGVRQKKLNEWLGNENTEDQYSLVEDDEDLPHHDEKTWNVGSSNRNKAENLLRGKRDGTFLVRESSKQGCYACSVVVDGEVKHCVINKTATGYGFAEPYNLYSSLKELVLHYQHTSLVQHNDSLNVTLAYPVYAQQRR

| SMILES | IC50 ([1]; Homo sapiens, Pfeiffer) [nM] | IC50 (PI3Kδ (p110δ/p85α)) [nM] | IC50 [1] [nM] |
| --- | --- | --- | --- |
| COc1c(C(C)n2nc(C)c3c(N)ncnc32)cc(Cl)c(C#N)c1C1CN(CCO)C1 (single isomer, unassigned) [Example 268, 4-[1-(4-Amino-3-methyl-1H-pyrazolo[3,4-d]pyrimidin-1-yl)ethyl]-6-chloro-2-[1-(2-hydroxyethyl)azetidin-3-yl]-3-methoxybenzonitrile] | < 10 | < 10 |  |
| COc1c(C(C)n2nc(C)c3c(N)ncnc32)cc(Cl)c(C)c1C1CCN(C)CC1 (racemic) [Example 163, 1-{1-[5-Chloro-2-methoxy-4-methyl-3-(1-methylpiperidin-4-yl)phenyl]ethyl}-3-methyl-1H-pyrazolo[3,4-d]pyrimidin-4-amine] | 10 to 50 | < 10 |  |
| CCOc1c(C(C)n2nc(C)c3c(N)ncnc32)cc(Cl)c(C#N)c1C1CN(C[C@@H](C)O)C1 (stereo partly drawn) [Example 221, 4-[1-(4-Amino-3-methyl-1H-pyrazolo[3,4-d]pyrimidin-1-yl)ethyl]-6-chloro-3-ethoxy-2-{1-[(2R)-2-hydroxypropyl]azetidin-3-yl}benzonitrile] | < 10 | < 10 |  |
| CCOc1c(C(C)n2nc(C)c3c(N)ncnc32)cc(Cl)c(C#N)c1C1CN(C)C1 (single isomer, unassigned) [Example 213, 4-[1-(4-Amino-3-methyl-1H-pyrazolo[3,4-d]pyrimidin-1-yl)ethyl]-6-chloro-3-ethoxy-2-(1-methylazetidin-3-yl)benzonitrile] | < 10 | < 10 |  |
| COc1c(C(C)n2nc(C)c3c(N)ncnc32)cc(Cl)c(C)c1C1CN(CCO)C1 (single isomer, unassigned) [Example 104, 2-(3-{3-[1-(4-Amino-3-methyl-1H-pyrazolo[3,4-d]pyrimidin-1-yl)ethyl]-5-chloro-2-methoxy-6-methylphenyl}azetidin-1-yl)ethanol] | 10 to 50 | < 10 |  |
| COc1c(C(C)n2nc(C)c3c(N)ncnc32)cc(Cl)c(C#N)c1C1CN(C[C@@H](C)O)C1 (stereo partly drawn) [Example 270, 4-[1-(4-Amino-3-methyl-1H-pyrazolo[3,4-d]pyrimidin-1-yl)ethyl]-6-chloro-2-{1-[(2R)-2-hydroxypropyl]azetidin-3-yl}-3-methoxybenzonitrile] | < 10 | < 10 |  |
| CCOc1c(C(C)n2nc(C)c3c(N)ncnc32)cc(Cl)c(F)c1C1CN(CC(C)(C)O)C1 (racemic) [Example 140, 1-(3-{3-[1-(4-Amino-3-methyl-1H-pyrazolo[3,4-d]pyrimidin-1-yl)ethyl]-5-chloro-2-ethoxy-6-fluorophenyl}azetidin-1-yl)-2-methylpropan-2-ol] | < 10 | < 10 |  |
| CCOc1c(C(C)n2nc(C)c3c(N)ncnc32)cc(Cl)c(F)c1C1CN(C(C)C)C1 (stereo not shown) [Example 139, 1-{1-[5-Chloro-2-ethoxy-4-fluoro-3-(1-isopropylazetidin-3-yl)phenyl]ethyl}-3-methyl-1H-pyrazolo[3,4-d]pyrimidin-4-amine] | < 10 | < 10 |  |
| COc1c(C(C)n2nc(C)c3c(N)ncnc32)cc(Cl)c(C)c1C1CN(C[C@@H](C)O)C1 (single isomer, unassigned) [Example 103] |  | < 10 | 10 to 50 |
| CCOc1c(C(C)n2nc(C(F)F)c3c(N)ncnc32)cc(Cl)c(F)c1C1CN(C[C@H](C)O)C1 (stereo partly drawn) [Example 154, (2S)-1-[3-(3-{1-[4-Amino-3-(difluoromethyl)-1H-pyrazolo[3,4-d]pyrimidin-1-yl]ethyl}-5-chloro-2-ethoxy-6-fluorophenyl)azetidin-1-yl]propan-2-ol] | < 10 | < 10 |  |
| CCOc1c(C(C)n2nc(C)c3c(N)ncnc32)cc(Cl)c(C)c1-c1ccc(C(=O)N(C)C)nc1 (stereo not shown) [Example 195, 5-(3-(1-(4-Amino-3-methyl-1H-pyrazolo[3,4-d]pyrimidin-1-yl)ethyl)-5-chloro-2-ethoxy-6-methylphenyl)-N,N-dimethylpicolinamide bis(2,2,2-trifluoroacetate)] | < 10 |  |  |
| COc1c(C(C)n2nc(C)c3c(N)ncnc32)cc(Cl)c(C#N)c1C1CN(C(C)C)C1 (single isomer, unassigned) [Example 264, 4-[1-(4-Amino-3-methyl-1H-pyrazolo[3,4-d]pyrimidin-1-yl)ethyl]-6-chloro-2-(1-isopropylazetidin-3-yl)-3-methoxybenzonitrile] | < 10 |  |  |
| COc1c(C(C)n2nc(C)c3c(N)ncnc32)cc(Cl)c(C)c1-c1ccnc(C(=O)N(C)C)c1 (stereo not shown) [Example 200, 4-(3-(1-(4-Amino-3-methyl-1H-pyrazolo[3,4-d]pyrimidin-1-yl)ethyl)-5-chloro-2-methoxy-6-methylphenyl)-N,N-dimethylpicolinamide bis(2,2,2-trifluoroacetate)] | < 10 |  |  |
| CCOc1c(C(C)n2nc(C)c3c(N)ncnc32)cc(Cl)c(C#N)c1C1CN(S(C)(=O)=O)C1 (single isomer, unassigned) [Example 248, 4-[1-(4-Amino-3-methyl-1H-pyrazolo[3,4-d]pyrimidin-1-yl)ethyl]-6-chloro-3-ethoxy-2-[1-(methylsulfonyl)azetidin-3-yl]benzonitrile] | < 10 |  |  |
| COc1c(C(C)n2nc(C(F)F)c3c(N)ncnc32)cc(Cl)c(C)c1-c1ccc(C(=O)N(C)C)nc1 (stereo not shown) [Example 191, 5-(3-{1-[4-Amino-3-(difluoromethyl)-1H-pyrazolo[3,4-d]pyrimidin-1-yl]ethyl}-5-chloro-2-methoxy-6-methylphenyl)-N,N-dimethylpyridine-2-carboxamide] | < 10 |  |  |
| COc1c(C(C)n2nc(C)c3c(N)ncnc32)cc(Cl)c(C)c1C1CN(C(=O)[C@@H](C)O)C1 (single isomer, unassigned) [Example 121, trifluoroacetate] | 10 to 50 |  |  |
| CCOc1c(C(C)n2nc(C)c3c(N)ncnc32)cc(Cl)c(F)c1C1CN(CCO)C1 (racemic) [Example 144, 2-(3-{3-[1-(4-Amino-3-methyl-1H-pyrazolo[3,4-d]pyrimidin-1-yl)ethyl]-5-chloro-2-ethoxy-6-fluorophenyl}azetidin-1-yl)ethanol] | < 10 |  |  |
| COc1c(C(C)n2nc(C)c3c(N)ncnc32)cc(Cl)c(F)c1C1CN(C[C@H](C)O)C1 (single isomer, unassigned) [68 (1st peak)] | < 10 |  |  |
| CCOc1c(C(C)n2nc(C)c3c(N)ncnc32)cc(Cl)c(F)c1C1CN(CC(N)=O)C1 (racemic) [Example 148, 2-(3-{3-[1-(4-Amino-3-methyl-1H-pyrazolo[3,4-d]pyrimidin-1-yl)ethyl]-5-chloro-2-ethoxy-6-fluorophenyl}azetidin-1-yl)acetamide] | < 10 |  |  |
| CCOc1c(C(C)n2nc(C)c3c(N)ncnc32)cc(Cl)c(F)c1C1CNC(=O)C1 (single isomer, unassigned) [Example 347, 4-{3-[1-(4-amino-3-methyl-1H-pyrazolo[3,4-d]pyrimidin-1-yl)ethyl]-5-chloro-2-ethoxy-6-fluorophenyl}pyrrolidin-2-one] |  |  | < 10 |
| CCOc1c(C(C)n2nc(C(F)F)c3c(N)ncnc32)cc(Cl)c(F)c1C1CN(CCO)C1 (racemic) [Example 152, 2-[3-(3-{1-[4-Amino-3-(difluoromethyl)-1H-pyrazolo[3,4-d]pyrimidin-1-yl]ethyl}-5-chloro-2-ethoxy-6-fluorophenyl)azetidin-1-yl]ethanol] | < 10 |  |  |
| COc1c(C(C)n2nc(C)c3c(N)ncnc32)cc(Cl)c(Cl)c1C1CN(CC(C)(C)O)C1 (single isomer, unassigned) [Example 303, 1-(3-{3-[1-(4-Amino-3-methyl-1H-pyrazolo[3,4-d]pyrimidin-1-yl)ethyl]-5,6-dichloro-2-methoxyphenyl}azetidin-1-yl)-2-methylpropan-2-ol] | < 10 |  |  |
| CCOc1c(C(C)n2nc(C)c3c(N)ncnc32)cc(Cl)c(F)c1C1CN(C[C@H](C)O)C1 (stereo partly drawn) [Example 149, (2S)-1-(3-{3-[1-(4-Amino-3-methyl-1H-pyrazolo[3,4-d]pyrimidin-1-yl)ethyl]-5-chloro-2-ethoxy-6-fluorophenyl}azetidin-1-yl)propan-2-ol] | < 10 |  |  |
| CCOc1c(C(C)n2nc(C)c3c(N)ncnc32)cc(C)c(C#N)c1-c1ccc(C(=O)N(C)C)nc1 (stereo not shown) [Example 314, 5-{3-[1-(4-amino-3-methyl-1H-pyrazolo[3,4-d]pyrimidin-1-yl)ethyl]-6-cyano-2-ethoxy-5-methylphenyl}-N,N-dimethylpyridine-2-carboxamide] | < 10 |  |  |
| CCOc1c(C(C)n2nc(C)c3c(N)ncnc32)cc(Cl)c(C)c1-c1cncc(C(=O)N(C)C)c1 (single isomer, unassigned) [Example 196, 5-(3-(1-(4-amino-3-methyl-1H-pyrazolo[3,4-d]pyrimidin-1-yl)ethyl)-5-chloro-2-ethoxy-6-methylphenyl)-N,N-dimethylnicotinamide] | < 10 |  |  |
| CCOc1c(C(C)n2nc(C)c3c(N)ncnc32)cc(Cl)c(C)c1-c1cncc(S(C)(=O)=O)c1 (single isomer, unassigned) [Example 198] | < 10 |  |  |
| CCOc1c(C(C)n2nc(C)c3c(N)ncnc32)cc(Cl)c(C#N)c1C1CN(C(=O)NC)C1 (single isomer, unassigned) [Example 257, 3-{3-[1-(4-Amino-3-methyl-1H-pyrazolo[3,4-d]pyrimidin-1-yl)ethyl]-5-chloro-6-cyano-2-ethoxyphenyl}-N-methylazetidine-1-carboxamide] | < 10 |  |  |
